Assay results published in US20260159519A1, “IMIDAZOPYRIDAZINE SUBSTITUTED BENZENE RING DERIVATIVE, PREPARATION METHOD, PHARMACEUTICAL COMPOSITION AND USE” (SHANGHAI SIMR BIOTECHNOLOGY CO., LTD., priority 2022, published 2026).

What was measured:
[1] = biological target: T1, human α2-GABAA receptor (BZD site, membrane protein of HEK293 cells) (Homo sapiens, UniProt P18507+P47869); experiment: Radioligand competitive binding assay (3H-flunitrazepam) at the BZD site of the α2-GABAA receptor; conditions: competition with 1 nM 3H-flunitrazepam; Ki calculated from IC50; read-out: α2 Ki
T1 construct: expressed in transfected cells
Text: (§1) α subunit, β subunit, and γ subunit are essential for the formation of a complete and functional GABAA receptor. In this example of the present disclosure, HEK293 cells stably expressing the human α1-GABAA receptor (α1-GABAAR) and α2-GABAA receptor (α2-GABAAR) were constructed and separately selected using the lipofection method (Felgner, P. L., et al. Proceedings of the National Academy of Sciences, 1987, 84: 7413-7417). The α1-GABAAR-HEK293 cell model simultaneously expressed the α1 subunit (for protein sequence, see GenBank accession No.: NM_000806.5), the […] (for protein sequence, see GenBank accession No.: NM_000814.5), and the […] (for protein sequence, see GenBank accession No.: NM_000816.3). The α2-GABAAR-HEK293 cell model simultaneously expressed the α2 subunit (for protein sequence, see GenBank accession No.: NM_000807.4), the β3 subunit (for protein sequence, see GenBank accession No.: NM_000814.5), and the γ2 subunit (for protein sequence, see GenBank accession No.: NM_000816.3).
(§2) The above cell lines were subcultured. The α2-GABAAR-HEK293 cells were expanded for testing the affinity of compounds to the benzodiazepine (BZD) site of the GABAA receptor. During the passage process, some of the α1-GABAAR-HEK293 cells and α2-GABAAR-HEK293 cells were suspended and plated on a slide pre-treated with Poly-D-Lysine for electrophysiological testing (method referenced from patent CN107344936A, paragraph 0586).
The affinity of the compounds for the α2-GABAA receptor was determined by competing for the binding of ^3H-flunitrazepam (isotope ^3H-labelled flunitrazepam) to the BZD site on the membrane protein of HEK293 cells stably expressing the human α2-GABAAR.
Membrane preparation: Cells were suspended in 50 mM Tris-HCl buffer (pH=7.4), homogenized 10 times for 20 seconds with a homogenizer on ice, and centrifuged at 1000 g for 10 minutes at 4° C. The supernatant was taken, and the above steps were repeated. The supernatant was centrifuged at 4° C. (33800 g; Thermo, rotor: A27-8×50) for 60 minutes. The precipitate was resuspended in Tris buffer (50 mM Tris-HCl, 10 mM MgCl2, 0.5 mM EDTA, and 10% glycerol). The protein content was determined (BCA (bicinchoninic acid) protein quantification assay based on copper ion reduction, with a BCA kit purchased from Pierce (Annoron (Beijing) Biotechnology Co., Ltd.)), and 1 mL aliquots were prepared and stored at −80° C.
Radioligand competitive binding assay: This assay was performed in a 200 μL system (96-well plate) containing 100 μL of cell membrane. The concentration of ^3H-flunitrazepam was 1 nM, and the concentrations of the test compounds were in the range of […]. Flumazenil was used as a control. 1 μL of 2 mM flumazenil (final […]) was added to each low signal control (low control, LC) well, and 1 μL of dimethyl sulfoxide was added to each high signal control (high control, HC) well. The final concentration of target membrane protein was […]. All sample stock solutions of test compounds were 10 mM dimethyl sulfoxide solutions. All the samples were diluted to a concentration of 0.2 mM with dimethyl sulfoxide, and then subjected to a 4-fold serial dilution for a total of 8 working concentration gradients. The 96-well plate was sealed with a sealing membrane and then incubated on a shaker at room temperature for 1 hour. Meanwhile, a GF/C filter plate was soaked in plate soaking buffer (0.3% PEI (polyethyleneimine, purchased from Sigma-Aldrich, model: P314), stored at 4° C.) for at least 0.5 hours. After the binding incubation was completed, the cells were harvested onto the GF/C filter plate using a cell harvester and washed four times with plate washing buffer (50 mM Tris-HCl, pH 7.4, stored at 4° C.). After drying in an oven at 50° C. for 1 hour, the dried GF/C filter plate was bottom-sealed. The residual radioactivity on the filter membrane was detected by liquid scintillation counting.

[2] = biological target: T2, human α2-GABAA receptor (α2-GABAAR-HEK293 cells) (Homo sapiens, UniProt P18507+P47869); experiment: Whole-cell patch-clamp electrophysiology, positive allosteric modulatory activity on α2-GABAA receptor; format: cell-based; conditions: read-out: α2-GABAA positive allosteric modulatory activity
T2 construct: expressed in transfected cells
Text: as §1, §2
(§3) The positive regulatory activity of the test drugs on the α1-GABAA receptor and the α2-GABAA receptor was detected by the electrophysiological method. The specific method was as follows:
(§4) Compound concentration setting: The final concentration of the compounds used for screening was 100 nM. For cell lines expressing the α1-GABAA receptor, the concentration of GABA was 0.05 to 0.07 μM (approximately EC2-4). For cell lines expressing the α2-GABAA receptor, the concentration of GABA was 0.10 to 0.11 μM (approximately EC7-8). Electrophysiological testing was performed using the whole-cell patch-clamp technique, which can refer to the method reported in the literature (Nickolls, S. A., et al. British Journal of Pharmacology, 2018, 175: 708-725). The composition of the extracellular solution (ECS) for electrophysiology was as follows: 150 mM NaCl, 5 mM KCl, 2.5 mM CaCl2, 1 mM MgCl2, 10 mM HEPES, and 10 mM glucose (pH 7.4). The formulation of the intracellular solution (ICS) for electrophysiology was as follows: 140 mM CsCl, 11 mM EGTA, 10 mM HEPES, 2 mM CaCl2, 1 mM MgCl2, 4 mM MgATP, and 2 mM TEA (pH 7.3). GABA (γ-aminobutyric acid) powder was prepared into a mother liquor with pure water, which was then diluted in ECS. The compound was first prepared into a 4 mM mother liquor with dimethyl sulfoxide, which was then gradually diluted in the corresponding concentration of GABA-ECS. The solutions were freshly prepared prior to electrophysiological testing.
(§5) Electrophysiological signal acquisition was performed using an EPC 10 amplifier and PatchMaster software (HEKA) or an Axon 700B amplifier and Clampex software (AXON). The recording electrode was made through a drawing process using borosilicate glass, with an electrode resistance of 4 to 6 MΩ. Extracellular administration was performed using the ALA-VC-8PG™ system. A single, independently growing cell was selected. After the glass electrode formed a good seal with the cell, the membrane was ruptured to form the whole-cell configuration. The cell membrane potential was clamped at −60 mV and recorded in Gap-free mode. During the test, the extracellular solution was first applied extracellularly for approximately 20 seconds. After the baseline (Iprebaseline) stabilized, the extracellular solution was switched to GABA-ECS. At this point, the current induced by GABA (Igaba) could be detected. After approximately 10 to 20 seconds, when the current stabilized, the extracellular solution was switched to a mixture of the compound and GABA-ECS. […]

[3] = biological target: T3, human α1-GABAA receptor (α1-GABAAR-HEK293 cells) (Homo sapiens, UniProt P14867+P18507); experiment: Whole-cell patch-clamp electrophysiology, positive allosteric modulatory activity on α1-GABAA receptor; format: cell-based; conditions: read-out: α1-GABAA positive allosteric modulatory activity
T3 construct: expressed in transfected cells
Text: as §1, §2, §3, §4, §5

Row | SMILES | Ki [1] [nM] | activation at 0.1 µM [2] [%] | activation at 0.1 µM [3] [%]
1 | COc1cc2c(cc1-c1cc(-c3cnnc4c3ncn4C(C)C)ccc1F)oc(=O)n2C [Example 35, 6-(2-Fluoro-5-(7-isopropyl-7H-imidazo[4,5-c]pyridazin-4-yl)phenyl)-5-methoxy-3-methylbenzo[d]oxazol-2(3H)-one] | 7.73 | 134 | 80
2 | COc1cc2nn(C)cc2cc1-c1cc(-c2cnnc3c2ncn3C(C)C)ccc1F [Example 49, 4-(4-Fluoro-3-(6-methoxy-2-methyl-2H-indazol-5-yl)phenyl)-7-isopropyl-7H-imidazo[4,5-c]pyridazine] | 9.16 | 94 | 58
3 | CCn1cnc2c(-c3ccc(F)c(-c4cc5sc(=O)n(C)c5cc4OC)c3)cnnc21 [Example 53, 6-(5-(7-Ethyl-7H-imidazo[4,5-c]pyridazin-4-yl)-2-fluorophenyl)-5-methoxy-3-methylbenzo[d]thiazol-2(3H)-one] | 3.78 | 94 | 21
4 | CCn1cnc2c(-c3ccc(F)c(-c4cc5cn(C6CCN(C)CC6(F)F)nc5cc4OC)c3)cnnc21 (stereo not drawn) [Example 74, 4-(3-(2-(3,3-Difluoro-1-methylpiperidin-4-yl)-6-methoxy-2H-indazol-5-yl)-4-fluorophenyl)-7-ethyl-7H-imidazo[4,5-c]pyridazine] | 6.99 | 104 | 9
5 | CCn1cnc2c(-c3ccc(F)c(-c4cc5cn(-c6nccn6C)nc5cc4OC)c3)cnnc21 [Example 78, 7-Ethyl-4-(4-fluoro-3-(6-methoxy-2-(1-methyl-1H-imidazol-2-yl)-2H-indazol-5-yl)phenyl)-7H-imidazo[4,5-c]pyridazine] | 3.91 | 110 | 10
6 | CCn1cnc2c(-c3ccc(F)c(-c4cc5oc(C6CCOCC6)nc5cc4OC)c3)cnnc21 [Example 93, 6-(5-(7-Ethyl-7H-imidazo[4,5-c]pyridazin-4-yl)-2-fluorophenyl)-5-methoxy-2-(tetrahydro-2H-pyran-4-yl)benzo[d]oxazole] | 8.32 | 115 | 79
7 | CCn1cnc2c(-c3ccc(F)c(-c4cc5cn(C6CCN(C)CC6)nc5cc4OC)c3)cnnc21 [Example 99, 7-Ethyl-4-(4-fluoro-3-(6-methoxy-2-(1-methylpiperidin-4-yl)-2H-indazol-5-yl)phenyl)-7H-imidazo[4,5-c]pyridazine] | 4.31 | 106 | -2
8 | CCn1cnc2c(-c3ccc(F)c(-c4cc5cn(-c6ccccc6)nc5cc4OC)c3)cnnc21 [Example 101, 7-Ethyl-4-(4-fluoro-3-(6-methoxy-2-phenyl-2H-indazol-5-yl)phenyl)-7H-imidazo[4,5-c]pyridazine] | 4.46 | 157 | 56

Now those with a lower Ki [1], led by results:

Row | Ki [1] [nM] | activation at 0.1 µM [2] [%] | activation at 0.1 µM [3] [%] | SMILES
9 | 3.44 | 90 | 14 | CCn1cnc2c(-c3ccc(F)c(-c4cc5oc(=O)n(C6CC6)c5cc4OC)c3)cnnc21 [Example 51, 3-Cyclopropyl-6-(5-(7-ethyl-7H-imidazo[4,5-c]pyridazin-4-yl)-2-fluorophenyl)-5-methoxybenzo[d]oxazol-2(3H)-one]
10 | 2.43 | 81 | 21 | CCn1cnc2c(-c3ccc(F)c(-c4cc5ccc(=O)n(C)c5cc4OC)c3)cnnc21 [Example 55, 6-(5-(7-Ethyl-7H-imidazo[4,5-c]pyridazin-4-yl)-2-fluorophenyl)-7-methoxy-1-methylquinolin-2(1H)-one]
11 | 0.5 | 90 | -27 | CCn1cnc2c(-c3ccc(F)c(-c4ccc5c(nnn5C5CC5)c4OC)c3)cnnc21 [Example 70, 4-(3-(1-Cyclopropyl-4-methoxy-1H-benzo[d][1,2,3]triazol-5-yl)-4-fluorophenyl)-7-ethyl-7H-imidazo[4,5-c]pyridazine]
12 | 2.43 | 107 | 61 | CCn1cnc2c(-c3ccc(F)c(-c4cc5cn(C6CCN(C)CC6F)nc5cc4OC)c3)cnnc21 (stereo not drawn) [Example 76, 7-Ethyl-4-(4-fluoro-3-(2-(3-fluoro-1-methylpiperidin-4-yl)-6-methoxy-2H-indazol-5-yl)phenyl)-7H-[4,5-c]pyridazine]
13 | 1.13 | 104 | 66 | CCn1cnc2c(-c3ccc(F)c(-c4cc5cn(C6CCN(C7COC7)CC6)nc5cc4OC)c3)cnnc21 [Example 77, 7-Ethyl-4-(4-fluoro-3-(6-methoxy-2-(1-(oxetan-3-yl)piperidin-4-yl)-2H-indazol-5-yl)phenyl)-7H-imidazo[4,5-c]pyridazine]
14 | 2.34 | 83 | -25 | CCn1cnc2c(-c3ccc(F)c(-c4ccc5c(nnn5C)c4OC)c3)cnnc21 [Example 81, 7-Ethyl-4-(4-fluoro-3-(4-methoxy-1-methyl-1H-benzo[d][1,2,3]triazol-5-yl)phenyl)-7H-imidazo[4,5-c]pyridazine]
15 | 3.35 | 102 | 64 | CCn1cnc2c(-c3ccc(F)c(-c4cc5cn(C(F)F)nc5cc4OC)c3)cnnc21 [Example 111, 4-(3-(2-(Difluoromethyl)-6-methoxy-2H-indazol-5-yl)-4-fluorophenyl)-7-ethyl-7H-imidazo[4,5-c]pyridazine]
